In patent US5821243A, “Compounds compositions and methods for treating influenza” (priority 1997, dated 1998):
Counter-ions that a name gives are not always drawn. Like-named read-outs stand apart in the source and are kept apart here.

How the values were obtained:
influenza = test: Potency against influenza (test not specified)
influenza A/WSN virus = test: Plaque reduction in MDCK cells, influenza A/WSN
Procedure: (§1) Compounds were evaluated for antiviral activity against influenza A/WSN, A/Victoria and B/Lee viruses by plaque reduction in Madin Darby canine kidney (MDCK) cells. Duplicate monolayers of MDCK cells in 6 well plates were washed free of protein-containing media, infected with 50-100 plaque-forming units of virus (0.4 ml. volume), and incubated at 37° C. for 60 minutes. After aspiration of the virus inoculum, a 0.6% agarose overlay (3 ml.) containing Eagle minimal essential media, trypsin (8 μg/ml.), and the appropriate drug dilution (final concentration of 1% DMSO) was added to the cell monolayer. Plates were incubated at 370° C. in a humidified atmosphere of 5% CO2 in air. After 48 hours, monolayers were fixed with glutaraldehyde, stained with 0.1% crystal violet and the plaques were counted. The percentage of plaque inhibition relative to the infected control (no drug) plates were calculated for each drug concentration and the 50% inhibitory concentration (IC50) was determined.

[1] = test system: influenza A/Victoria virus; test: Plaque reduction in MDCK cells, influenza A/Victoria
Procedure: as §1

influenza B/Lee virus = test: Plaque reduction in MDCK cells, influenza B/Lee; conditions: read-out: IC50, […], B/Lee, 48 hours
Procedure: as §1

MDCK cells = test: Cell growth assay (MTT) in MDCK cells; format: cell-based, canine; conditions: Canis lupus familiaris, 2-3 days, read-out: IC50, concentration required to achieve a 50% reduction of optical density (cell growth)
Procedure: Effects of the pyridazine derivatives of the invention on cell growth were determined in MDCK cells in 96 well plates by a tetrazolium-based calorimetric method (R. Pauwels et al., J. Virol. Methods, 20, 309-321 (1988)). This assay detects the in situ reduction of 3-(4,5-dimethylthiazol-2-yl)-2,5-diphenyltetrazolium bromide (MTT) by viable cells. Approximately 1×10^4 cells were seeded per well and incubated with drug-containing growth media for 2-3 days (3-4 cell doublings). The drug concentration resulting in a reduction of optical density by 50% was determined.

[2] = target: influenza virus cleavage of cap 1 RNA (Influenza A virus, UniProt P03427+P15659); test: Assay for cleavage of cap 1 AIMV RNA4 by influenza virus; format: biochemical; conditions: read-out: IC50, 50% inhibition of influenza virus cleavage of cap 1 RNA
[3] = target: influenza A/WSN virus transcriptase (Influenza A virus, UniProt P03427+P03430+P15659); test: biochemical; conditions: 45 minutes at 31° C, 1% DMSO; read-out: IC50, concentration required to achieve 50% inhibition of influenza A/WSN virus transcriptase activity
[4] = MDCK, 48 h, read-out: IC50, […], A/WSN, MDCK cells, 48 hours
[5] = MDCK, 48 h, read-out: IC50, […], A/Victoria, MDCK cells, 48 hours
[6] = read-out: IC50, […], A/WSN, MDCK cells, 48 hours

For `CC(=O)NS(=O)(=O)c1ccc(N2N=C(C)C(=O)C(=O)C2=O)cc1` [N-acetyl-4-(6-methyl-3,4,S-trioxo-2H,3H,4H,5H-pyridazinyl)benzenesulfonamide], which potency against influenza (influenza) is on record?
The potency against influenza was “significant potency”.

How did the IC50 (influenza A/WSN virus; [4]) turn out when `CC1=NN(c2ccc(-c3nn[nH]n3)cc2)C(=O)C(=O)C1=O` [Example 7, Sodium Salt of 2-(4-tetrazolylphenyl) 2,3,4,5-tetrahydro-6-methyl-pyridazine-3,4,5-trione] was run?
Its IC50 is 2 µM.

For `CC1=NN(c2ccc(C(=O)O)c(Cl)c2)C(=O)C(=O)C1=O` [Example 3, 2-chloro-4-(6-methyl-3,4,5-trioxo-2H,3H,4H,5H-pyridazinyl)benzoic acid], which IC50 [1, 5] is on record?
Its IC50 is 50 µM.

And the IC50 (influenza A/WSN virus; [4])?
Its IC50 is 16 µM.

With `CC1=NN(c2ccc(C(N)=O)cc2)C(=O)C(=O)C1=O` [4-(6-methyl-3,4,5-trioxo-2H,3H,4H,5H-pyridazinyl)benzenecarboxamide] as the compound, how does the potency against influenza (influenza) read?
Its potency against influenza is “significant potency”.

With `CC1=NN(c2ccc3[nH]ncc3c2)C(=O)C(=O)C1=O` [Example 8, 5-indazolyl-2,3,4,5-tetrahydro-6-methyl-pyridazine-3,4,5-trione] as the compound, how does the IC50 (influenza A/WSN virus; [4]) read?
The IC50 was 50 µM.

For `CNS(=O)(=O)c1ccc(Cl)c(N2N=C(C)C(=O)C(=O)C2=O)c1` [N-methyl-4-chloro-3-(6-methyl-3,4,5-trioxo-2H,3H,4H,5H-pyridazinyl)benzenesulfonamide], which potency against influenza (influenza) is on record?
The potency against influenza was “significant potency”.

Which potency against influenza (influenza) does the source give for `CC1=NN(c2ccc(S(=O)(=O)Nc3cccnc3)cc2)C(=O)C(=O)C1=O` [N-(3-pyridyl)-4-(6-methyl-3,4,5-trioxo-2H,3H,4H,5H-pyridazinyl)benzenesulfonamide] here?
The potency against influenza was “significant potency”.

Which IC50 (influenza B/Lee virus) does the source give for `CC1=NN(c2ccc(S(N)(=O)=O)cc2)C(=O)C(=O)C1=O` [Example 5, Sodium Salt of 4-(6-methyl-3,4,5-trioxo-2H,3H,4H,5H-pyridazinyl)benzoic sulfonamide] here?
Its IC50 is 30 µM.

What about the IC50 ([1]; read-out: IC50, […], A/Victoria, MDCK cells, 48 hours) of the same compound?
The IC50 was 11 µM.

What about the IC50 (influenza A/WSN virus; [6]) of the same compound?
Its IC50 is 8 µM.

Which potency against influenza (influenza) does the source give for `CNS(=O)(=O)c1ccc(N2N=C(C)C(=O)C(=O)C2=O)cc1` [N-methyl-4-(6-methyl-3,4,5-trioxo-2H,3H,4H,5H-pyridazinyl)benzenesulfonamide] here?
The potency against influenza was “significant potency”.

Which IC50 [1, 5] does the source give for `CC1=NN(c2ccc(C(=O)O)cc2C)C(=O)C(=O)C1=O` [Example 1, 3-methyl-4-(6-methyl-3,4,5-trioxo-2H,3H,4H,5H-pyridazinyl)benzoic acid] here?
Its IC50 is 90 µM.

And the IC50 (MDCK cells)?
The IC50 was greater than 200 µM.

What about the IC50 [2] of the same compound?
The IC50 was 0.2 µM.

What about the IC50 [3] of the same compound?
The IC50 was 0.1 µM.

And the IC50 (influenza A/WSN virus; [4])?
The IC50 was 50 µM.

Which IC50 [1, 5] does the source give for `CC1=NN(c2ccc(S(N)(=O)=O)cc2)C(=O)C(=O)C1=O` [Example 4, 4-(6-methyl-3,4,5-trioxo-2H,3H,4H,5H-pyridazinyl)benzene sulfonamide] here?
Its IC50 is 8 µM.

And the IC50 (MDCK cells)?
The IC50 was greater than 100 µM.

And the IC50 [2]?
Its IC50 is 2 µM.

And the IC50 [3]?
The IC50 was 1 µM.

What about the IC50 (influenza A/WSN virus; [4]) of the same compound?
The IC50 was 8 µM.

How did the IC50 (influenza A/WSN virus; [4]) turn out when `CC1=NN(c2ccc3[nH]nnc3c2)C(=O)C(=O)C1=O` [Example 9, 5-benzotriazolyl-2,3,4,5-tetrahydro-6-methyl-pyridazine-3,4,5-trione] was run?
The IC50 was 20 µM.

For `CC1=NN(c2ccc(C(=O)O)cc2C)C(=O)C(=O)C1=O` [Example 2, Sodium Salt of 3-methyl-4-(6-methyl-3,4,5,-trioxo-2H,3H,4H,5H-pyridazinyl)benzoic acid], which IC50 (influenza B/Lee virus) is on record?
The IC50 was greater than 200 µM.

And the IC50 (influenza A/WSN virus; [6])?
The IC50 was 100 µM.

With `CC1=NN(c2ccc(S(=O)(=O)Nc3ccccc3)cc2)C(=O)C(=O)C1=O` [N-phenyl-4-(6-methyl-3,4,5-trioxo-2H,3H,4H,5H-pyridazinyl)benzenesulfonamide] as the compound, how does the potency against influenza (influenza) read?
Its potency against influenza is “significant potency”.

Which IC50 [1, 5] does the source give for `CC1=NN(c2ccc(-c3nnn[nH]3)cc2)C(=O)C(=O)C1=O` [Example 6, 2-(4-tetrazolylphenyl) 2,3,4,5-tetrahydro-6-methyl-pyridazine-3,4,5-trione] here?
The IC50 was 2 µM.

And the IC50 [3]?
The IC50 was 0.2 µM.

And the IC50 (influenza A/WSN virus; [4])?
The IC50 was 1 µM.

For `CC1=NN(c2ccc(C)c(S(N)(=O)=O)c2)C(=O)C(=O)C1=O` [2-methyl-5-(6-methyl-3,4,5-trioxo-2H,3H,4H,5H-pyridazinyl)benzenesulfonamide], which potency against influenza (influenza) is on record?
Its potency against influenza is “significant potency”.

Which potency against influenza (influenza) does the source give for `CC1=NN(c2ccc3c(c2)S(=O)(=O)NC3=O)C(=O)C(=O)C1=O` [6-(6-methyl-3,4,5-trioxo-2H,3H,4H,5H-pyridazinyl)-1,1-dioxo-1,2-dihydro-1λ^6-benz<d>isothiazol-3-one] here?
Its potency against influenza is “significant potency”.
